# Data reported in EP0928793B1, “Thiazole derivatives” (F. HOFFMANN-LA ROCHE AG, priority 1998, dated 1999).
# Target: T1, vitronectin receptor αvβ3 (Homo sapiens, UniProt P05106+P06756)
# T1 construct: Human placenta is stored at -80°C immediately after its excision; In order to extract the receptor; from tissue; host or cells: human placenta
# Experiment: Inhibition of fibrinogen binding to immobilised vitronectin receptor αvβ3 (ELISA)
# Settings: fibrinogen 1.5 µg/ml, receptor from human placenta coated on microtitre plates, overnight at room temperature, ELISA detection; read-out: VNR IC50
# Protocol: The inhibition of the binding of adhesive proteins such as e.g. fibrinogen to vitronectin receptors (such as e.g. αvβ3, αvβ5, αvβ6, αvβ8, etc. or to the fibrinogen receptor (αIIbβ3) by compounds of formula I can be determined as described by L. Alig et al. (J.Med.Chem. 1992, 35, 4393-4407).
# In detail thereto, the wells of microtitre plates (Nunc-Immunoplate MaxiSorp) were coated overnight at 4°C with the vitronectin receptor αvβ3 (from human placenta, 100 µl/well) in a buffer system with 150 mmol/l NaCl, 1 mmol/CaCl2, 1 mmol/l MgCl2, 0.0005% Triton X-100 and 20 mmol/l Tris HCl, pH 7.4. The non-specific binding sites were blocked by incubation with 3.5% bovine serum albumin (BSA from Fluka) at 20°C for at least 1 h. Before the beginning of the test the plates were washed in each case once with 150 mmol/l NaCl, 1 mmol/l CaCl2, 1 mmol/l MgCl2 and 20 mmol/l Tris HCI, pH 7.4 (buffer A). The thus-coated plates can be stored for at least 2 months in the presence of 0.05% NaN3 (in buffer A) at 4°C in a humidity chamber without loss of binding activity. Fibrinogen (IMCO, free from fibronectin) was diluted to 1.5 µg/ml in buffer A in the presence of 1% BSA. The wells coated with the receptor were incubated with fibrinogen (100 µl/well) overnight at room temperature in the absence of or in the presence of increasing concentrations of RGDS (as the reference substance) or the compounds to be measured. Non-bound fibrinogen was removed by three-fold washing with buffer A and bound fibrinogen was detected by an ELISA procedure. Antibodies of rabbits directed against human fibrinogen (Dakopatts, Denmark), diluted in buffer A in the presence of 0.1% BSA, were added at room temperature for 1h., followed by incubation with biotinylated antibodies directed against rabbit immunoglobulin (Amersham) for 30 min. Non-bound antibodies were removed by three-fold washing with buffer A. Thereafter, the pre-formed streptavidin-biotinylated peroxidase complex (Amersham) was added for 30 min. Three-fold washing with buffer A was again carried out. After addition of the peroxidase substrate ABTS (2,2'-azino-bis(3-ethylbenzothiazoline-6-sulphonic acid), Boehringer Mannheim) the enzyme activity was measured with a multichannel photometer (UVmax, Molecular Devices). The difference between total binding activity (in the absence of a test substance) and non-specific binding activity (in the presence of 100 µM RGDS) is taken as the specific binding activity. The concentration of a test substance which is required to inhibit the specific binding activity by 50% was defined as the IC50.
# The isolation of the receptor avb3 used in the test can be carried out as follows: Human placenta is stored at -80°C immediately after its excision. In order to extract the receptor, each placenta is superficially thawed and cut into narrow strips with a scalpel. The pieces are washed twice with a buffer of 150 mmol/l NaCl, 1 mmol/l CaCl2, 1 mmol/l MgCl2 and 20 mmol/l Tris HCl (pH 7.4). The proteins are extracted at room temperature for one hour with a buffer solution from 1% Triton X-100, 150 mmol/l NaCl, 1 mmol/l CaCl2, 1 mmol/l MgCl2, 20 mmol/l Tris HCl, 0.02% NaN3, 0.5 mmol/l phenylmethanesulphonyl fluoride, 1 mmol/l leupeptin and 2 mmol/l N-ethylmaleimide (pH 7.4) and filtered through sterile gauze. The filtrate is centrifuged at 30000 g for 30 min. at 4°C. The glycoproteins are firstly separated with the aid of a concanavalin A-Sepharose 4B column. The proteins bound to the column are eluted and then added to a Aeg-RGDS column. After repeated washing the bound vitronectin receptor is eluted by 3 mmol/l RGDS in a buffer of 0.1% Triton X-100, 150 mmol/l NaCl, 20 mmol/l Tris HCl, 1 mmol/l CaCl2, 1 mmol/l MgCl2, 0.05% NaN3 (pH 7.0).
# T1 sequence (P06756 31-889 limits assumed): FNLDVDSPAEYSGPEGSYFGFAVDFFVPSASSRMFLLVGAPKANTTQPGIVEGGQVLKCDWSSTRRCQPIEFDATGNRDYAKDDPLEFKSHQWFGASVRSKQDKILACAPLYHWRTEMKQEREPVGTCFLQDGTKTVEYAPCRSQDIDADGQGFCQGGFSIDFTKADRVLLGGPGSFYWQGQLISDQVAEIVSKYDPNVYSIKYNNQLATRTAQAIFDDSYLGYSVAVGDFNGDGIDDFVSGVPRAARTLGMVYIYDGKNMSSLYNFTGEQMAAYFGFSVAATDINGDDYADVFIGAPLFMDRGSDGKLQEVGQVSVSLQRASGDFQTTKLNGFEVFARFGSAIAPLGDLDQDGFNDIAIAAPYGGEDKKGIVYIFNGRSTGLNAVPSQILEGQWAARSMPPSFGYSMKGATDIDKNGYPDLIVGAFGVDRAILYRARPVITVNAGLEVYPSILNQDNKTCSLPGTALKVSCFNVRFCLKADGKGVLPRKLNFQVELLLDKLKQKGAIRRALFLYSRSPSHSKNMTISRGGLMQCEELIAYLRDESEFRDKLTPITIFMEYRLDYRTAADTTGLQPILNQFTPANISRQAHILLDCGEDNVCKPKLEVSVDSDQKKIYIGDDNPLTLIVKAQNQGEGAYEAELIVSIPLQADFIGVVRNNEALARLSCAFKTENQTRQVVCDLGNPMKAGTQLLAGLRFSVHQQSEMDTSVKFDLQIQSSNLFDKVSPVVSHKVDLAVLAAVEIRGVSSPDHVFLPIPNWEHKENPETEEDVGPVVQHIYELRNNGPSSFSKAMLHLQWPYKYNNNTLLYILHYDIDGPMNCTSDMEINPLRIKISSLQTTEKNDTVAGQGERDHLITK
# T1 sequence (P06756 891-1048 partner limits assumed): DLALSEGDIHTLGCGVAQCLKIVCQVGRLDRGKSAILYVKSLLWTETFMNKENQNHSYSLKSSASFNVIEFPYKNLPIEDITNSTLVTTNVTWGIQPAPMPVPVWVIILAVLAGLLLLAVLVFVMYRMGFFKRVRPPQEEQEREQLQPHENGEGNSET
# T1 sequence (P05106 27-788): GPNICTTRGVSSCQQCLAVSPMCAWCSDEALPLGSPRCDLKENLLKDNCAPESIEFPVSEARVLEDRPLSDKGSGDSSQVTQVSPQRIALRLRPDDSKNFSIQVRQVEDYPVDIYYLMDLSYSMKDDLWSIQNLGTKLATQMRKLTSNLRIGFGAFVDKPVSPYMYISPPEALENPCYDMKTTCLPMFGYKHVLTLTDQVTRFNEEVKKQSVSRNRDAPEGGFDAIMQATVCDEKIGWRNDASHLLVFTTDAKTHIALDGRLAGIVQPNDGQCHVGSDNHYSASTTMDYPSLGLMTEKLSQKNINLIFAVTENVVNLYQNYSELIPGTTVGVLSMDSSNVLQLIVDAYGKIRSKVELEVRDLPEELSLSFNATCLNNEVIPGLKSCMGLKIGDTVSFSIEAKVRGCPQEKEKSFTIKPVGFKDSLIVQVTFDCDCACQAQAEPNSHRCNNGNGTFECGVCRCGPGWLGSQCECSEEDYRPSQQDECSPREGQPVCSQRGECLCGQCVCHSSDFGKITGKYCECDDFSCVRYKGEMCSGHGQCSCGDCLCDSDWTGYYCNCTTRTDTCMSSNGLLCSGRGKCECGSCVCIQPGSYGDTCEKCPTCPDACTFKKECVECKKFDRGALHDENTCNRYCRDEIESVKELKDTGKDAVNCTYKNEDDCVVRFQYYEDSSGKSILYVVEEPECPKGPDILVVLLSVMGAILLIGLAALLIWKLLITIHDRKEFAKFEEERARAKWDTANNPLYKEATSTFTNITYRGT
row,SMILES,IC50 [µM]
1,NC(N)=Nc1nc(-c2ccccc2)c(C(=O)N2CCCC(COCC(=O)O)C2)s1 (racemic) [rac [1-(2-guanidino-4-phenyl-thiazole-5-carbonyl)-piperidin-3-ylmethoxy]-acetic acid],0.07
2,NC(N)=Nc1nc(C2CCCC2)c(C(=O)N2CCCC(COCC(=O)O)C2)s1 (racemic) [rac [1-(4-cyclopentyl-2-guanidino-thiazol-5-ylcarbonyl)-piperidin-3-ylmethoxy]-acetic acid],0.09
3,Cc1nc(NC(=N)N)sc1C(=O)N1CCC[C@@H](COCC(=O)O)C1 [(R)-[1-(2-guanidino-4-methyl-thiazole-5-carbonyl)-piperidin-3-ylmethoxy]-acetic acid],0.05

# The next lines start with the values.
row,IC50 [µM],SMILES
1,0.039,Cc1nc(N=C(N)N)sc1C(=O)N1CCCC(COCC(=O)O)C1 (racemic) [rac [1-(2-guanidino-4-methyl-thiazole-5-carbonyl)-piperidin-3-ylmethoxy]-acetic acid]
2,0.018,CCCc1nc(N=C(N)N)sc1C(=O)N1CCCC(COCC(=O)O)C1 (racemic) [rac [1-(2-guanidino-4-propyl-thiazole-5-carbonyl)-piperidin-3-ylmethoxy]-acetic acid]
3,0.022,CC(C)(C)c1nc(N=C(N)N)sc1C(=O)N1CCCC(COCC(=O)O)C1 (racemic) [rac [1-(4-tert-butyl-2-guanidino-thiazole-5-carbonyl)-piperidin-3-ylmethoxy]-acetic acid]
